“And” between values parts separate entries of the source, which are not always exact repeats. Identical values can stand only once.
How the values were obtained:
[1] = system: Lysyl oxidase family activity in aorta; assay: Lysyl oxidase family activity in aorta of KPC tumor bearing mice at end point, fluorometric activity assay; type: in vivo, mouse; conditions: for Lysyl oxidase family activity measured in the aorta of KPC tumour bearing mice at endpoint (signal over noise): Extended Data 5A, fluorometric activity assay, noise measured with 300 µM ßAPN, individual animals
Experimental: KPC mice were treated from the time at which palpable tumors were detected (typically 10 to 12 weeks of age) and continued until the study end point. Mice were treated daily with PXS-5505 (20 mg kg^−1 i.p.) or vehicle (0.9% saline) and twice weekly with gemcitabine (100 mg kg^−1 i.p.) or vehicle (0.9% saline).
Extended Data Fig. 5 PXS-5505 in combination with gemcitabine in vivo. a. […] Signal is defined as the enzyme activity in the aorta, while noise is measured in the presence of a high concentration (300 µM) BAPN to abolish any lysyl oxidase family activity. […] Data presented as mean values +/− SD b. […] Data presented as mean values +/− SD. c. FITC-dextran (molecular weight: 10 kDa) signal quantification from KPC tumor end point from each treatment group (vehicle n = 3 biologically independent animals, PXS-5505 n = 5 biologically independent animals, Gem n = 5 biologically independent animals, PXS-5505 + Gem n = 5 biologically independent animals). 4 ROIs taken per mouse. P-values determined by Welchs t-test. Data presented as mean values +/− SD. Scale bars = 100 μm d. Quantification of red birefringent (mature) collagen fibers from human PDXs at end point after 3 cycles of treatment, treated as indicated. […] Data presented as mean values +/− SD. Scale bars = 100 μm e. Quantification of bulk modulus (stiffness) by unconfined compression testing of end point human PDX tumors from each treatment group (vehicle n = 5 biologically independent animals, Gem n = 5 biologically independent animals, PXS-5505 n = 5 biologically independent animals, PXS-5505 + Gem n = 5 biologically independent animals) [individual tumors shown]). […] FITC-dextran (molecular weight 10 kDa) signal quantification from human PDXs from each treatment group (vehicle n = 4 biologically independent animals, PXS-5505 n = 5 biologically independent animals, Gem n = 5 biologically independent animals, PXS-5505 + Gem n = 5 biologically independent animals). […] P values determined by Welchs t-test. g. […] Quantification of green birefringent (nascent) collagen fibers from human PDXs at end point, treated as indicated. […]

[2] = system: lysyl oxidase family members in KPC CCs; assay: qRT-PCR of lysyl oxidase family members after treatment (Extended Data Figs. 2d, 3h); type: cell-based, mouse; design: qRT-PCR LOX (Ct) / qRT-PCR LOX ΔCt / qRT-PCR LOX ΔΔCt KPC CC / qRT-PCR LOXL1 ΔCt / qRT-PCR LOXL1 ΔΔCt KPC CC / qRT-PCR LOXL2 ΔCt / qRT-PCR LOXL2 ΔΔCt KPC CC / qRT-PCR LOXL3 ΔCt / qRT-PCR LOXL3 ΔΔCt KPC CC / qRT-PCR LOXL4 ΔCt / qRT-PCR LOXL4 ΔΔCt KPC CC: dose or concentration left out as unconfirmed;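 as to qRT-PCR LOX ΔCt: 30 µM PXS-5505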;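 as to qRT-PCR LOXL2 ΔCt: 30 µM PXS-5505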;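 as to qRT-PCR LOXL3 ΔCt: 30 µM PXS-5505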;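 as to qRT-PCR LOXL4 ΔCt: 30 µM PXS-5505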
Experimental: A total of 5 × 10^5 KPC CCs or CAFs were seeded and collected after incubation in 21% O2/5% CO2 for 72 h. RNA was isolated using the RNeasy mini kit (QIAGEN) according to the manufacturer’s instructions. Then, 1 μg of RNA was reverse transcribed using the Transcriptor First Strand cDNA Synthesis kit (Roche LifeScience) with anchored-oligo(dT)18 primers or the QuantiTect Reverse Transcription kit (QIAGEN). Real-time PCR was performed using the Roche LightCycler480 (Roche LifeScience) or QuantStudio 7 (Thermo Fisher). The following probe sets from Applied Biosystems, were used: LOX, Mm00495386; LOXL1, Mm01145738; LOXL2, Mm00804740; LOXL3, Mm01184867; LOXL4, Mm00446385; and GAPDH, Mm99999915. Primers and Roche Universal Probe Library probes used for RT–qPCR are described in Supplementary Table 4. Relative mRNA expression levels for each transcript of interest were normalized to GAPDH or ACTB (as indicated) and quantified using the comparative double ΔCt method (unless stated otherwise) for each biological replicate.
Extended Data Fig. 2 Characterization of cells derived from the KPC autochthonous model. a. Immunofluorescence staining of KPC CCs and KPC CAFs for the pancreatic epithelial cell marker CDH1 (green), DAPI (blue) and for the CAF marker α-SMA (yellow), DAPI (blue). Representative images from n = 3 biological independent samples. Scale bar = 30 μm. b. RNAseq reads for CAF and epithelial cell makers in KPC CAFs n = 3 biological independent samples. […] Data is presented as mean values ± SEM. […] Data presented as mean values +/− SD. […] Source data
Data presented as mean values +/− SD. f. […] Data presented as mean values +/− SD. […] Data presented as mean values +/− SD. […] Data presented as mean values +/− SD. Ordinary one-way ANOVA for multiple comparison test performed. Source data

[3] = KPC CCs, 50 nM gemcitabine, 48 hours, per replicate
[4] = KPC CCs, 50 nM gemcitabine, 48 hours, vs GAPDH, per replicate
[5] = KPC CC, 48 hour treatment, 30 M PXS-5505, replicates
[6] = KPC CC, 48 hour treatment, PXS-5505, replicates
[7] = KPC CC, 48 hour treatment, PXS-5505, vs GAPDH, replicates

For `Nc1ccn([C@@H]2O[C@H](CO)[C@@H](O)C2(F)F)c(=O)n1` [Gem, gemcitabine], which “Lysyl oxidase family activity measured in the aorta of KPC tumour bearing mice at endpoint (signal over noise)” value [1] is on record?
Its value is 2.059 and 2.616 and 2.089 and 2.043 and 2.04 and 2.065 and 2.364.

And the “LOX ΔΔCt CC” value [2, 3]?
Its value is 0.5966 and 0.4518 and 0.8445.

And the “LOXL1 ΔΔCt CC” value [2, 3]?
The value was 2.011 and 0.7673 and 0.4707.

And the “LOXL2 ΔΔCt CC” value [2, 3]?
Its value is 1.535 and 1.563 and 1.2.

And the “LOXL3 ΔΔCt CC” value [2, 3]?
Its value is 1.643 and 1.594 and 1.375.

What about the “LOXL4 ΔΔCt CC” value [2, 3] of the same molecule?
The value was 0.7511 and 0.9095 and 0.7486.

What about the “LOX ΔCt” value [2, 4] of the same molecule?
The value was 14.7188 and 15.1199 and 14.2176.

And the “LOXL1 ΔCt” value [2, 4]?
Its value is 12.5081 and 13.8984 and 14.6034.

And the “LOXL2 ΔCt” value [2, 4]?
Its value is 4.459 and 4.433 and 4.815.

What about the “LOXL3 ΔCt” value [2, 4] of the same molecule?
The value was 5.8941 and 5.937 and 6.151.

And the “LOXL4 ΔCt” value [2, 4]?
Its value is 8.9744 and 8.6983 and 8.979.

What about the “expression of lysyl oxidase family members” value ([2]; KPC cancer cells, 50 nM gemcitabine for 48 hours) of the same molecule?
The value was “not observed”.

Which “Lysyl oxidase family activity measured in the aorta of KPC tumour bearing mice at endpoint (signal over noise)” value [1] does the source give for `Cl.Cl.NC/C=C(\F)CS(=O)(=O)c1cccc2cccnc12.O` [PXS-5505, (Z)-3-fluoro-4-(quinolin-8-ylsulfonyl)but-2-en-1-amine dihydrochloride monohydrate] here?
Its value is 1.144 and 1.3025 and 1.519 and 1.787 and 1.62 and 1.558.

And the “lysyl oxidase family activity in the aorta at end point” value ([1]; KPC tumor bearing mice)?
Its value is “confirming lysyl oxidase family inhibition”.

What about the “qRT-PCR LOXL1 (Ct)” value [2, 5] of the same molecule?
The value was 32.0868 and 30.4856 and 33.7318.

What about the “qRT-PCR LOXL2 (Ct)” value [2, 5] of the same molecule?
Its value is 25.1478 and 23.1006 and 27.5044.

What about the “qRT-PCR LOXL3 (Ct)” value [2, 5] of the same molecule?
Its value is 25.6118 and 24.0525 and 29.0502.

And the “qRT-PCR LOXL4 (Ct)” value [2, 5]?
The value was 26.1005 and 25.1765 and 30.4751.

And the “qRT-PCR LOX (Ct)” value [2, 6]?
The value was 32.5405 and 35.0722 and 35.237.

What about the “qRT-PCR LOX ΔΔCt KPC CC” value [2, 6] of the same molecule?
The value was 3.619 and 0.48 and 10.8682.

What about the “qRT-PCR LOXL1 ΔΔCt KPC CC” value [2, 6] of the same molecule?
The value was 0.8362 and 0.4014 and 1.074.

And the “qRT-PCR LOXL2 ΔΔCt KPC CC” value [2, 6]?
The value was 0.7412 and 0.4847 and 0.5812.

And the “qRT-PCR LOXL3 ΔΔCt KPC CC” value [2, 6]?
The value was 2.035 and 0.9488 and 0.7538.

What about the “qRT-PCR LOX ΔCt” value [2, 7] of the same molecule?
Its value is 15.5819 and 18.4964 and 13.9954.

And the “qRT-PCR LOXL1 ΔCt” value [2, 7]?
The value was 12.8511 and 13.9099 and 12.4902.

What about the “qRT-PCR LOXL2 ΔCt” value [2, 7] of the same molecule?
Its value is 5.9121 and 6.525 and 6.263.

And the “qRT-PCR LOXL3 ΔCt” value [2, 7]?
Its value is 6.376 and 7.477 and 7.8086.

And the “qRT-PCR LOXL4 ΔΔCt KPC CC” value ([2]; KPC CC, 48 hour treatment, replicates)?
Its value is 3.255 and 0.9772 and 0.6302.

And the “qRT-PCR LOXL4 ΔCt” value ([2]; KPC CC, 48 hour treatment, vs GAPDH, replicates)?
Its value is 6.8648 and 8.601 and 9.233.

What about the “transcription of lysyl oxidase family members” value ([2]; KPC CCs, PXS-5505 up to 300 µM) of the same molecule?
The value was “does not significantly alter transcription”.
